# Experimental data as given in PubChem BioAssay (NCI).
#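 Interpolation was linear, between the two tested concentrations surrounding the appropriate level; five concentrations were tested over 48 hours in 96-well plates. GI50: concentration for 50% inhibition of growth. At the TGI there is no net growth.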
# Tests used:
# Test in all cases: inhibition of tumour cell growth, NCI panel, 48 h
# [1] = test system: BT-549 breast
# [2] = test system: A498 renal
# [3] = test system: HS 578T breast
# [4] = test system: HOP-62 NSCLC
# [5] = test system: HCT-15 colon
# [6] = test system: 786-0 renal
# [7] = test system: PC-3 prostate
# [8] = test system: SK-OV-3 ovarian
# [9] = test system: UO-31 renal
# [10] = test system: LOX IMVI melanoma
SMILES,GI50 [1],TGI [1],GI50 [2],TGI [2],GI50 [3],TGI [3],GI50 [4],TGI [4],GI50 [5],TGI [5],GI50 [6],TGI [6],GI50 [7],TGI [7],GI50 [8],TGI [9],TGI [8],GI50 [10],TGI [10],GI50 [9]
COc1cc2c(cc1OCCCCCn1c(-c3ccco3)nc3ccccc31)N=C[C@@H]1CCCN1C2=O,< 0.01 µM,< 0.0209 µM,< 0.01 µM,< 0.0156 µM,< 0.01 µM,< 0.0349 µM,< 0.01 µM,1.1 µM,0.0452 µM,26.4 µM,< 0.01 µM,1.3 µM,< 0.01 µM,> 100 µM,< 0.01 µM,,,,,
O=C(CC/C(CC(=O)c1ccc(Cl)cc1)=N/O)Nc1ccc(Cl)c(Cl)c1,,,,> 100 µM,,,,> 100 µM,,> 100 µM,,> 100 µM,,,,> 100 µM,> 100 µM,,,
N#Cc1c(NC(=O)c2cccc3ccccc23)sc2c1CCCC2,0.144 µM,> 20.9 µM,0.0171 µM,1.83 µM,0.0156 µM,,0.0825 µM,> 25 µM,0.0775 µM,> 25 µM,0.101 µM,> 25 µM,0.079 µM,> 25 µM,,,,0.0625 µM,> 25 µM,
CCN(CC)CCCNc1nc2ccccc2c2c(=O)c3cc(Cl)ccc3sc12,15.8 µM,30.4 µM,8.42 µM,21.4 µM,3.13 µM,14.8 µM,3.05 µM,15.8 µM,1.61 µM,3.14 µM,1.69 µM,3.27 µM,3.41 µM,16.7 µM,,9.97 µM,,1.65 µM,3.08 µM,1.79 µM
COC(=O)c1c(C)cc2c(c1O)C1(O)C(=O)c3cc4c(c(O)c3C(=O)C1(OC)C(O)C2)C(=O)C=C(NC1OC(C)C(OC)C(O)C1OC)C4=O (stereo not given),,,,0.71 µM,,,,1.26 µM,,0.443 µM,,0.202 µM,,,,0.427 µM,1.58 µM,,0.0866 µM,
Oc1ccc2c3c1OC1C(=NN=C4CCC5(O)C6Cc7ccc(O)c8c7C5(CCN6CC5CC5)C4O8)CCC4(O)C(C2)N(CC2CC2)CCC314 (stereo not given),,,,> 67.7 µM,,,,> 65.7 µM,,> 100 µM,,66.2 µM,,,,> 100 µM,> 75.2 µM,,39.1 µM,
COc1ccc(Cn2cnc3cc(C(=O)Nc4cccc5ccccc45)ccc32)c(OC)c1,0.0603 µM,6.53 µM,0.0226 µM,0.0771 µM,0.0351 µM,> 100 µM,,,0.0443 µM,> 51.1 µM,0.045 µM,> 100 µM,0.051 µM,> 100 µM,0.106 µM,> 100 µM,> 100 µM,0.0611 µM,> 100 µM,0.0759 µM
COc1cc2c3c(n(CCCNC(=O)OCC4c5ccccc5-c5ccccc54)c(=O)c2cc1OC)-c1cc2c(cc1C3=O)OCO2,,,24.9 µM,> 100 µM,22.8 µM,> 100 µM,13.7 µM,> 74 µM,> 63.2 µM,> 100 µM,37.7 µM,> 100 µM,> 100 µM,> 100 µM,> 64.7 µM,> 100 µM,> 100 µM,1.48 µM,> 37.1 µM,> 100 µM
COCOCc1cc(OCc2ccccc2)c(OC)cc1Br,,,,> 100 µM,,,,> 100 µM,,> 100 µM,,> 100 µM,,,,,,,> 100 µM,
N#CCCN(CCC#N)c1ccc(/C=N\c2nc(-c3ccccc3)cs2)cc1,,,,> 100 µM,,,,> 100 µM,,> 100 µM,,> 100 µM,,,,> 100 µM,> 100 µM,,> 100 µM,
CC(=O)c1c(O)ccc2c(C)c(C(=O)O)oc12,> 100 µM,> 100 µM,> 100 µM,> 100 µM,> 100 µM,> 100 µM,> 100 µM,> 100 µM,> 100 µM,> 100 µM,> 100 µM,> 100 µM,> 100 µM,> 100 µM,,> 100 µM,,> 100 µM,> 100 µM,> 100 µM
COC(=O)c1cc2c3ccccc3n3c(=O)c4cc5cc(OC)c(N(S(=O)(=O)c6ccc(C)cc6)S(=O)(=O)c6ccc(C)cc6)cc5nc4c(n1)c23,11 µM,27.8 µM,10.2 µM,29.6 µM,4.97 µM,54.2 µM,,,> 100 µM,> 100 µM,3.23 µM,14.5 µM,> 100 µM,> 100 µM,4.53 µM,,81.3 µM,23.5 µM,> 100 µM,
CCOC(=O)N[C@H]1CCc2cc(O)c(OC)c(OC)c2-c2ccc(SC)c(=O)cc21,,,,0.922 µM,,,,> 100 µM,,> 100 µM,,> 59.9 µM,,,,> 100 µM,> 8.57 µM,,> 100 µM,
CCCCCCCCCCCCSC(=NC)NC,4.09 µM,21 µM,2.63 µM,8.69 µM,2.41 µM,7.07 µM,1.94 µM,4.59 µM,1.55 µM,3.39 µM,1.88 µM,3.51 µM,1.9 µM,4.94 µM,4.26 µM,5.64 µM,19 µM,,,2.11 µM
COc1cc(-n2cc(-c3ccc(F)cc3)[nH]c2=S)cc(OC)c1OC,58 µM,> 100 µM,,,18.3 µM,> 100 µM,> 100 µM,> 100 µM,> 100 µM,> 100 µM,63.6 µM,> 100 µM,80.1 µM,> 100 µM,38.2 µM,> 100 µM,> 100 µM,> 100 µM,> 100 µM,> 100 µM
O=C1C2C(C(=O)N1c1ccccc1)C1(c3ccccc3)OC2(c2ccccc2)c2ccccc21 (stereo not given),,,,,,,,> 100 µM,,> 100 µM,,> 100 µM,,,,> 100 µM,> 100 µM,,> 100 µM,
CCOCC(=O)N[C@H]1CCc2cc(OC(=O)COCC)c(OC)c(OC)c2-c2ccc(SC)c(=O)cc21,,,,,,,,> 100 µM,,2.85 µM,0.0568 µM,> 100 µM,0.0164 µM,,0.0558 µM,> 100 µM,,,> 100 µM,0.68 µM
CN1C(=O)c2cc([N+](=O)[O-])ccc2[C@H]2C(=O)c3cc4c(cc3[C@H]21)OCO4,,,0.257 µM,0.528 µM,0.93 µM,> 100 µM,0.158 µM,> 100 µM,0.19 µM,> 50 µM,0.0388 µM,,0.521 µM,63 µM,0.588 µM,1.51 µM,> 100 µM,0.0161 µM,0.155 µM,0.0409 µM
